This note sets out measurements from patent US7223773B2, “4-oxoquinolizine antibacterial agent having 2-pyridone skeleton as partial structure” (Salo Pharmaceutical Co., Ltd., priority 2001, dated 2007).

Values after ≈ are worked out from the molar mass of the structure shown. Read-outs that look alike come from different tables or passages of the source.

Type in all cases: cell-based
In experiment [1] the test system is Bacillus subtilis JCM 2499. Put plainly: in vitro antibacterial activity, agar plate dilution method (MIC). The following applies: JCM2499, read-out: Antimicrobial spectrum MIC. The method, then:
(§1) The in vitro antibacterial activities of the compounds provided by the present invention were tested by a standard method of Chemotherapy Society of Japan, i.e. an agar plate dilution method disclosed in CHEMOTHERAPY Vol. 29, pages 76–79, 1981, and the activities of them on anaerobic bacteria were tested by a method disclosed in CHEMOTHERAPY Vol. 27, 559–590, 1979. The results were shown in terms of the minimum inhibition concentration (MIC, μg/ml) for the growth of the bacteria.

The subject of experiment [2] is Branhamella catarrhalis IID 5233. Described as above. To be noted: Moraxella catarrhalis, IID5233, read-out: Antimicrobial spectrum MIC. The method, then: as §1
Experiment [3] deals with Enterococcus faecalis CSJ 1212. The experiment is described as above. To be noted: CSJ1212, read-out: Antimicrobial spectrum MIC. The method, then: as §1
Experiment [4] deals with Enterococcus faecalis RIMD 3116001. The description is as above. To be noted: RIMD3116001, read-out: Antimicrobial spectrum MIC. The method, then: as §1
The subject of experiment [5] is Escherichia coli IFO 12734. Described as above. The following applies: IFO12734, read-out: Antimicrobial spectrum MIC. On the procedure: as §1
The test system of experiment [6] is Haemophilus influenzae IID 984. Described as above. The following applies: IID984, read-out: Antimicrobial spectrum MIC. The method, then: as §1
Experiment [7] relates to Klebsiella pneumoniae IID 865. The description is as above. The following applies: IID865, read-out: Antimicrobial spectrum MIC. The method, then: as §1
Experiment [8] relates to Micrococcus luteus KI 3122. The experiment is described as above. The following applies: KI3122, read-out: Antimicrobial spectrum MIC. On the procedure:
as §1

Experiment [9] deals with Pseudomonas aeruginosa CSJ 1853. The description is as above. To be noted: CSJ1853, read-out: Antimicrobial spectrum MIC. On the procedure:
as §1

Experiment [10] deals with Staphylococcus aureus Clin-211(MRSA). The description is as above. The following applies: read-out: Antimicrobial spectrum MIC. On the procedure: as §1
In experiment [11] the test system is Staphylococcus aureus IFO 13276. The description is as above. To be noted: IFO13276, read-out: Antimicrobial spectrum MIC. On the procedure:
as §1

For experiment [12], the system named is Staphylococcus aureus IID 803(Smith). The experiment is described as above. The following applies: IID803, read-out: Antimicrobial spectrum MIC. The method, then: as §1
Experiment [13] has as its system Staphylococcus aureus JCM 2874. The experiment is described as above. To be noted: JCM2874, read-out: Antimicrobial spectrum MIC. On the procedure:
as §1

In experiment [14] the test system is Staphylococcus epidermidis IFO 12993. The description is as above. To be noted: IFO12993, read-out: Antimicrobial spectrum MIC. On the procedure: as §1
The subject of experiment [15] is Streptococcus pneumoniae IID 553. The experiment is described as above. To be noted: IID553, read-out: Antimicrobial spectrum MIC. The method, then:
as §1

For experiment [16], the system named is Bacteroides fragilis GAI 0675. In words: in vitro antibacterial activity on anaerobic bacteria (MIC). The following applies: GAI0675; Bacteroides fragilis GAI 0675, anaerobic; read-out: Antimicrobial spectrum MIC. On the procedure: as §1
Experiment [17] deals with Bacteroides thetaiotaomicron ATCC 29741. The experiment is described as above. The method, then:
as §1

The test system of experiment [18] is Propionibacterium acnes JCM 6425. The experiment is described as above. To be noted: Cutibacterium acnes, JCM6425; Propionibacterium acnes JCM 6425, anaerobic; read-out: Antimicrobial spectrum MIC. On the procedure:
as §1

The mark [19] stands for this setting: ATCC29741, Bacteroides thetaiotaomicron ATCC 29741, anaerobic, read-out: Antimicrobial spectrum MIC.

Regarding `C[C@H]1COc2c(N3CCN(C)CC3)c(F)cc3c(=O)c(C(=O)O)cn1c23` [Levofloxacin, reference compound], the MIC came to 0.031 µg/mL (≈ 0.0858 µM) in experiment [1]; 0.031 µg/mL (≈ 0.0858 µM) in [2]; 0.5 µg/mL (≈ 1.38 µM) in experiment [3]; 1 µg/mL (≈ 2.77 µM) in experiment [4]; 0.031 µg/mL (≈ 0.0858 µM) in experiment [5]; 0.016 µg/mL (≈ 0.0443 µM) in experiment [6]. Also, the MIC was 0.008 µg/mL (≈ 0.0221 µM) in [7]; 1 µg/mL (≈ 2.77 µM) in [8]; 0.5 µg/mL (≈ 1.38 µM) in [9]; 4 µg/mL (≈ 11.1 µM) in [10]; 0.125 µg/mL (≈ 0.346 µM) in [11]; 0.125 µg/mL (≈ 0.346 µM) in experiment [12]. For the same molecule, the MIC was 0.25 µg/mL (≈ 0.692 µM) in experiment [13]; 0.25 µg/mL (≈ 0.692 µM) in experiment [14]; 0.5 µg/mL (≈ 1.38 µM) in experiment [15]; 0.5 µg/mL (≈ 1.38 µM) in experiment [16]; 4 µg/mL (≈ 11.1 µM) in [17] (Bacteroides thetaiotaomicron, ATCC29741, read-out: Antimicrobial spectrum MIC); 0.25 µg/mL (≈ 0.692 µM) in experiment [18].
Turning to `Cc1c(-c2cccc(CN(C)C)c2)ccn2c(=O)c(C(=O)O)cc(C3CC3)c12` [Example 117, 1-Cyclopropyl-8-(3-dimethylaminomethylphenyl)-9-methyl-4-oxo-4H-quinolizine-3-carboxylic acid], the MIC in experiment [1] is 0.031 µg/mL (≈ 0.0823 µM); in experiment [2], 0.125 µg/mL (≈ 0.332 µM); in experiment [3], 0.5 µg/mL (≈ 1.33 µM); in [4], 1 µg/mL (≈ 2.66 µM); in experiment [5], 0.5 µg/mL (≈ 1.33 µM); in [6], 0.063 µg/mL (≈ 0.167 µM). Also, the MIC in [7] came out at 0.031 µg/mL (≈ 0.0823 µM); in experiment [8], 1 µg/mL (≈ 2.66 µM); in experiment [9] it was 1 µg/mL (≈ 2.66 µM); in [10], 1 µg/mL (≈ 2.66 µM); in experiment [11], 0.063 µg/mL (≈ 0.167 µM); in [12], 0.063 µg/mL (≈ 0.167 µM). Besides, the MIC stood at 0.125 µg/mL (≈ 0.332 µM) in [13]; 0.125 µg/mL (≈ 0.332 µM) in experiment [14]; 0.5 µg/mL (≈ 1.33 µM) in experiment [15]; 0.5 µg/mL (≈ 1.33 µM) in [16]; 1 µg/mL (≈ 2.66 µM) in [17] (setting [19]); 0.5 µg/mL (≈ 1.33 µM) in [18].
As for `Cc1c(-c2cccc(N)c2)ccn2c(=O)c(C(=O)O)cc(C3CC3)c12` [Example 26, 8-(3-aminophenyl)-1-cyclopropyl-9-methyl-4-oxo-4H-quinolizine-3-carboxylic acid], the MIC is at most 0.004 µg/mL in experiment [1]; 0.016 µg/mL (≈ 0.0479 µM) in [2]; 0.125 µg/mL (≈ 0.374 µM) in experiment [3]; 0.25 µg/mL (≈ 0.748 µM) in experiment [4]; 0.125 µg/mL (≈ 0.374 µM) in experiment [5]; 0.016 µg/mL (≈ 0.0479 µM) in [6]. In addition, the MIC in [7] turned out to be 0.008 µg/mL (≈ 0.0239 µM); in experiment [8], 0.125 µg/mL (≈ 0.374 µM); in experiment [9], 0.25 µg/mL (≈ 0.748 µM); in experiment [10], 0.125 µg/mL (≈ 0.374 µM); in experiment [11] it was 0.008 µg/mL (≈ 0.0239 µM); in [12], 0.008 µg/mL (≈ 0.0239 µM). The MIC in [13] stood at 0.008 µg/mL (≈ 0.0239 µM); in experiment [14], 0.016 µg/mL (≈ 0.0479 µM); in [15], 0.25 µg/mL (≈ 0.748 µM); in experiment [16], 0.125 µg/mL (≈ 0.374 µM); in [17] (setting [19]) it was 0.25 µg/mL (≈ 0.748 µM); in [18], 0.063 µg/mL (≈ 0.188 µM).
Take `Cc1c(-c2ccc(CN)cc2)ccn2c(=O)c(C(=O)O)cc(C3CC3)c12` [Example 24, 8-(4-aminomethylphenyl)-1-cyclopropyl-9-methyl-4-oxo-4H-quinolizine-3-carboxylic acid]: the MIC in [1] was 0.016 µg/mL (≈ 0.0459 µM); in [2], 0.063 µg/mL (≈ 0.181 µM); in experiment [3], 0.25 µg/mL (≈ 0.718 µM); in experiment [4], 0.25 µg/mL (≈ 0.718 µM); in experiment [5], 0.063 µg/mL (≈ 0.181 µM); in experiment [6], 0.016 µg/mL (≈ 0.0459 µM). In addition, the MIC in experiment [7] is 0.008 µg/mL (≈ 0.023 µM); in experiment [8], 0.5 µg/mL (≈ 1.44 µM); in experiment [9], 0.5 µg/mL (≈ 1.44 µM); in experiment [10], 0.5 µg/mL (≈ 1.44 µM); in experiment [11], 0.031 µg/mL (≈ 0.089 µM); in experiment [12] it was 0.031 µg/mL (≈ 0.089 µM). Moreover, the MIC was 0.031 µg/mL (≈ 0.089 µM) in experiment [13]; 0.063 µg/mL (≈ 0.181 µM) in experiment [14]; 0.125 µg/mL (≈ 0.359 µM) in experiment [15]; 0.25 µg/mL (≈ 0.718 µM) in experiment [16]; 0.5 µg/mL (≈ 1.44 µM) in experiment [17] (setting [19]); 0.125 µg/mL (≈ 0.359 µM) in experiment [18].
Turning to `Cc1c(-c2ccc(N)nc2)ccn2c(=O)c(C(=O)O)cc(C3CC3)c12` [Example 89, 8-(6-Aminopyridin-3-yl)-1-cyclopropyl-9-methyl-4-oxo-4H-quinolizine-3-carboxylic acid], the MIC in [1] amounted to 0.016 µg/mL (≈ 0.0477 µM); in experiment [2], 0.125 µg/mL (≈ 0.373 µM); in [3], 0.25 µg/mL (≈ 0.745 µM); in experiment [4] it was 0.5 µg/mL (≈ 1.49 µM); in experiment [5] it was 0.25 µg/mL (≈ 0.745 µM); in experiment [6] it was 0.031 µg/mL (≈ 0.0924 µM). Moreover, the MIC was found to be 0.016 µg/mL (≈ 0.0477 µM) in experiment [7]; 0.5 µg/mL (≈ 1.49 µM) in experiment [8]; 1 µg/mL (≈ 2.98 µM) in [9]; 0.5 µg/mL (≈ 1.49 µM) in experiment [10]; 0.031 µg/mL (≈ 0.0924 µM) in [11]; 0.063 µg/mL (≈ 0.188 µM) in [12]. The MIC in [13] was 0.063 µg/mL (≈ 0.188 µM); in [14], 0.125 µg/mL (≈ 0.373 µM); in experiment [15] it was 0.5 µg/mL (≈ 1.49 µM); in [16], 0.5 µg/mL (≈ 1.49 µM); in experiment [17] (setting [19]), 1 µg/mL (≈ 2.98 µM); in experiment [18] it was 0.5 µg/mL (≈ 1.49 µM).
With `Cc1ccc(-c2ccn3c(=O)c(C(=O)O)cc(C4CC4)c3c2C)cc1N` [Example 63, 8-(3-Amino-4-methylphenyl)-1-cyclopropyl-9-methyl-4-oxo-4H-quinolizine-3-carboxylic acid], the MIC in [1] was at most 0.004 µg/mL; in [2], 0.063 µg/mL (≈ 0.181 µM); in [3] it was 0.5 µg/mL (≈ 1.44 µM); in experiment [4] it was 1 µg/mL (≈ 2.87 µM); in [5] it was 0.125 µg/mL (≈ 0.359 µM); in experiment [6] it was 0.125 µg/mL (≈ 0.359 µM). Besides, the MIC in experiment [7] is 0.016 µg/mL (≈ 0.0459 µM); in experiment [8] it was 0.125 µg/mL (≈ 0.359 µM); in experiment [9], 1 µg/mL (≈ 2.87 µM); in [10], 0.063 µg/mL (≈ 0.181 µM); in experiment [11], 0.008 µg/mL (≈ 0.023 µM); in experiment [12] it was 0.008 µg/mL (≈ 0.023 µM). The MIC in experiment [13] is 0.008 µg/mL (≈ 0.023 µM); in experiment [14] it was 0.016 µg/mL (≈ 0.0459 µM); in experiment [15], 1 µg/mL (≈ 2.87 µM); in experiment [16] it was 0.063 µg/mL (≈ 0.181 µM); in experiment [17] (setting [19]), 0.25 µg/mL (≈ 0.718 µM); in experiment [18], 0.031 µg/mL (≈ 0.089 µM).
